# Biological target: T1, GABA A receptor α5β3γ2 (Homo sapiens, UniProt P18507+P31644)
# T1 construct: expressed in transfected cells; host or cells: HEK293 (transiently transfected; membranes)
# Assay: [3H]flumazenil competition binding, membranes of HEK293 cells expressing human GABA A α5β3γ2
# Conditions: human α5β3γ2 in HEK293 (transiently transfected); 0.5 nM [3H]flumazenil; 1 hour at 4° C.; means of two determinations; read-out: Ki[nM]hα5
# Method: The affinity of compounds at GABA A receptor subtypes was measured by competition for [3H]flumazenil (85 Ci/mmol; Roche) binding to HEK293 cells expressing rat (stably transfected) or human (transiently transfected) receptors of composition α1β3γ2, α2β3γ2, α3β3γ2 and α5β3γ2.
# Cell pellets were suspended in Krebs-tris buffer (4.8 mM KCl, 1.2 mM CaCl2, 1.2 mM MgCl2, 120 mM NaCl, 15 mM Tris; pH 7.5; binding assay buffer), homogenized by polytron for ca. 20 sec on ice and centrifuged for 60 min at 4° C. (50000 g; Sorvall, rotor: SM24=20000 rpm). The cell pellets were resuspended in Krebs-tris buffer and homogenized by polytron for ca. 15 sec on ice. Protein was measured (Bradford method, Bio-Rad) and aliquots of 1 mL were prepared and stored at −80° C.
# Radioligand binding assays were carried out in a volume of […] (96-well plates) which contained […] of cell membranes, [3H]flumazenil at a concentration of 1 nM for α1, α2, α3 subunits and 0.5 nM for α5 subunits and the test compound in the range of […]. Nonspecific binding was defined by 10^−5 M diazepam and typically represented less than 5% of the total binding. Assays were incubated to equilibrium for 1 hour at 4° C. and harvested onto GF/C uni-filters (Packard) by filtration using a Packard harvester and washing with ice-cold wash buffer 50 mM Tris; pH 7.5). After drying, filter-retained radioactivity was detected by liquid scintillation counting. Ki values were calculated using Excel-Fit (Microsoft) and are the means of two determinations.
row,Ki [nM],Compound
1,33.1,"Cc1ccc2nc(-c3c(-c4ccccc4)noc3C)cn2c1 [Example 24, 6-Methyl-2-(5-methyl-3-phenyl-isoxazol-4-yl)-imidazo[1,2-a]pyridine]"
2,79.4,"Cc1onc(-c2ccccc2)c1-c1cn2ccc(NC(=O)C3CC3)cc2n1 [Example 48, Cyclopropanecarboxylic acid [2-(5-methyl-3-phenyl-isoxazol-4-yl)-imidazo[1,2-a]pyridin-7-yl]-amide]"
3,154,"CCOC(=O)c1ccc2nc(-c3c(-c4ccccc4)noc3C)cn2c1 [Example 30, 2-(5-Methyl-3-phenyl-isoxazol-4-yl)-imidazo[1,2-a]pyridine-6-carboxylic acid ethyl ester]"
4,110,"Cc1onc(-c2ccccc2)c1-c1cn2cc(Cl)ccc2n1 [Example 26, 6-Chloro-2-(5-methyl-3-phenyl-isoxazol-4-yl)-imidazo[1,2-a]pyridine]"
5,97,"Cc1onc(-c2ccccc2)c1-c1cn2ccc(C(=O)NCc3cccnc3)cc2n1 [Example 21, 2-(5-Methyl-3-phenyl-isoxazol-4-yl)-imidazo[1,2-a]pyridine-7-carboxylic acid (pyridin-3-ylmethyl)-amide]"
6,126,"Cc1onc(-c2ccccc2)c1-c1cn2cccc(Cl)c2n1 [Example 3, 8-Chloro-2-(5-methyl-3-phenyl-isoxazol-4-yl)-imidazo[1,2-a]pyridine]"
7,126,"Cc1onc(-c2ccccc2)c1C(=O)COc1cccn2cc(-c3c(-c4ccccc4)noc3C)nc12 [Example 7, 1-(5-Methyl-3-phenyl-isoxazol-4-yl)-2-[2-(5-methyl-3-phenyl-isoxazol-4-yl)-imidazo[1,2-a]pyridin-8-yloxy]-ethanone]"
8,73.2,"Cc1onc(-c2ccccc2)c1-c1cn2cc(-n3cccc3)ccc2n1 [Example 64, 2-(5-Methyl-3-phenyl-isoxazol-4-yl)-6-pyrrol-1-yl-imidazo[1,2-a]pyridine]"
9,30.7,"Cc1onc(-c2ccccc2)c1-c1cn2cc(NC(=O)c3ccccc3)ccc2n1 [Example 60, N-[2-(5-Methyl-3-phenyl-isoxazol-4-yl)-imidazo[1,2-a]pyridin-6-yl]-benzamide]"
10,88.1,"Cc1onc(-c2ccccc2)c1-c1cn2cc(N)ccc2n1 [Example 54, 2-(5-Methyl-3-phenyl-isoxazol-4-yl)-imidazo[1,2-a]pyridin-6-ylamine]"
11,183,"Cc1onc(-c2ccccc2)c1-c1cn2ccc(C(=O)NCc3ccco3)cc2n1 [Example 23, 2-(5-Methyl-3-phenyl-isoxazol-4-yl)-imidazo[1,2-a]pyridine-7-carboxylic acid (furan-2-ylmethyl)-amide]"
12,232,"Cc1onc(-c2ccccc2)c1-c1cn2cccc(C)c2n1 [Example 2, 8-Methyl-2-(5-methyl-3-phenyl-isoxazol-4-yl)-imidazo[1,2-a]pyridine]"
13,57.4,"Cc1onc(-c2ccccc2)c1-c1cn2cc(-n3ccnc3)ccc2n1 [Example 66, 6-Imidazol-1-yl-2-(5-methyl-3-phenyl-isoxazol-4-yl)-imidazo[1,2-a]pyridine]"
14,96,"Cc1onc(-c2ccccc2)c1-c1cn2ccc(C(=O)NC3CCOCC3)cc2n1 [Example 17, 2-(5-Methyl-3-phenyl-isoxazol-4-yl)-imidazo[1,2-a]pyridine-7-carboxylic acid (tetrahydro-pyran-4-yl)-amide]"
15,6.8,"Cc1onc(-c2ccccc2)c1-c1cn2cc(C(=O)NC3CCOCC3)ccc2n1 [Example 37, 2-(5-Methyl-3-phenyl-isoxazol-4-yl)-imidazo[1,2-a]pyridine-6-carboxylic acid (tetrahydro-pyran-4-yl)-amide]"
16,9.4,"Cc1onc(-c2ccccc2)c1-c1cn2cc(NC(=O)c3cccnc3)ccc2n1 [Example 61, N-[2-(5-Methyl-3-phenyl-isoxazol-4-yl)-imidazo[1,2-a]pyridin-6-yl]-nicotinamide]"
17,143,"Cc1onc(-c2ccccc2)c1-c1cn2cc(I)ccc2n1 [Example 52, 6-Iodo-2-(5-methyl-3-phenyl-isoxazol-4-yl)-imidazo[1,2-a]pyridine]"
18,54.3,"Cc1onc(-c2ccccc2)c1-c1cn2cc(NC(=O)Cc3cccnc3)ccc2n1 [Example 56, N-[2-(5-Methyl-3-phenyl-isoxazol-4-yl)-imidazo[1,2-a]pyridin-6-yl]-2-pyridin-3-yl-acetamide]"

row,Ki [nM],Compound
1,72.3,"C#CCNC(=O)c1ccn2cc(-c3c(-c4ccccc4)noc3C)nc2c1 [Example 12, 2-(5-Methyl-3-phenyl-isoxazol-4-yl)-imidazo[1,2-a]pyridine-7-carboxylic acid prop-2-ynylamide]"
2,121,"Cc1onc(-c2ccccc2)c1-c1cn2cc(Br)ccc2n1 [Example 27, 6-Bromo-2-(5-methyl-3-phenyl-isoxazol-4-yl)-imidazo[1,2-a]pyridine]"
3,178,"Cc1onc(-c2ccccc2)c1-c1cn2ccc(C(=O)NCC3CC3)cc2n1 [Example 11, 2-(5-Methyl-3-phenyl-isoxazol-4-yl)-imidazo[1,2-a]pyridine-7-carboxylic acid cyclopropylmethyl-amide]"
4,20.8,"Cc1onc(-c2ccccc2)c1-c1cn2cc(NC(=O)C3CC3)ccc2n1 [Example 57, Cyclopropanecarboxylic acid [2-(5-methyl-3-phenyl-isoxazol-4-yl)-imidazo[1,2-a]pyridin-6-yl]-amide]"
5,28.2,"Cc1onc(-c2ccccc2)c1-c1cn2cc(NC(=O)C3CCC3)ccc2n1 [Example 58, Cyclobutanecarboxylic acid [2-(5-methyl-3-phenyl-isoxazol-4-yl)-imidazo[1,2-a]pyridin-6-yl]-amide]"
6,114,"Cc1onc(-c2ccccc2)c1-c1cn2ccc(C(=O)NCCO)cc2n1 [Example 16, 2-(5-Methyl-3-phenyl-isoxazol-4-yl)-imidazo[1,2-a]pyridine-7-carboxylic acid (2-hydroxy-ethyl)-amide]"
7,44.5,"C#CCNC(=O)c1ccc2nc(-c3c(-c4ccccc4)noc3C)cn2c1 [Example 32, 2-(5-Methyl-3-phenyl-isoxazol-4-yl)-imidazo[1,2-a]pyridine-6-carboxylic acid prop-2-ynylamide]"
8,41.1,"Cc1onc(-c2ccccc2)c1-c1cn2cc(-n3cccn3)ccc2n1 [Example 65, 2-(5-Methyl-3-phenyl-isoxazol-4-yl)-6-pyrazol-1-yl-imidazo[1,2-a]pyridine]"
9,54.7,"Cc1onc(-c2ccccc2)c1-c1cn2cc(NC(=O)C3CCCC3)ccc2n1 [Example 59, Cyclopentanecarboxylic acid [2-(5-methyl-3-phenyl-isoxazol-4-yl)-imidazo[1,2-a]pyridin-6-yl]-amide]"
10,146,"Cc1onc(-c2ccccc2)c1-c1cn2cccc(Br)c2n1 [Example 4, 8-Bromo-2-(5-methyl-3-phenyl-isoxazol-4-yl)-imidazo[1,2-a]pyridine]"
11,90.3,"Cc1onc(-c2ccccc2)c1-c1cn2ccc(N)cc2n1 [Example 46, 2-(5-Methyl-3-phenyl-isoxazol-4-yl)-imidazo[1,2-a]pyridin-7-ylamine]"
12,174,"Cc1onc(-c2ccccc2)c1-c1cn2cc(C(=O)NCCN3CCOCC3)ccc2n1 [Example 38, 2-(5-Methyl-3-phenyl-isoxazol-4-yl)-imidazo[1,2-a]pyridine-6-carboxylic acid (2-morpholin-4-yl-ethyl)-amide]"
13,200,"Cc1onc(-c2ccccc2)c1-c1cn2ccc(C(=O)NC3CCCC3)cc2n1 [Example 15, 2-(5-Methyl-3-phenyl-isoxazol-4-yl)-imidazo[1,2-a]pyridine-7-carboxylic acid cyclopentylamide]"
14,38.4,"Cc1onc(-c2ccccc2)c1-c1cn2cc(NC(=O)CC3CC3)ccc2n1 [Example 55, 2-Cyclopropyl-N-[2-(5-methyl-3-phenyl-isoxazol-4-yl)-imidazo[1,2-a]pyridin-6-yl]-acetamide]"
15,23,"Cc1onc(-c2ccccc2)c1-c1cn2cccc(OCc3ccccc3)c2n1 [Example 6, 8-Benzyloxy-2-(5-methyl-3-phenyl-isoxazol-4-yl)-imidazo[1,2-a]pyridine]"
16,80.5,"Cc1onc(-c2ccccc2)c1-c1cn2ccc(NC(=O)C3CCC3)cc2n1 [Example 49, Cyclobutanecarboxylic acid [2-(5-methyl-3-phenyl-isoxazol-4-yl)-imidazo[1,2-a]pyridin-7-yl]-amide]"
17,87.4,"Cc1onc(-c2ccccc2)c1-c1cn2ccc(C(=O)NC3CC3)cc2n1 [Example 13, 2-(5-Methyl-3-phenyl-isoxazol-4-yl)-imidazo[1,2-a]pyridine-7-carboxylic acid cyclopropylamide]"
18,7.13,"Brc1ccc2nc(-c3c(-c4ccccc4)noc3C3CC3)cn2c1 [Example 69, 6-Bromo-2-(5-cyclopropyl-3-phenyl-isoxazol-4-yl)-imidazo[1,2-a]pyridine]"

row,Compound,Ki [nM]
1,"2-(5-Methyl-3-phenyl-isoxazol-4-yl)-imidazo[1,2-a]pyridine-6-carboxylic acid (3-morpholin-4-yl-propyl)-amide [Example 39]",190
